Measured values taken from publication PMC3739823, “Structural Guided Scaffold Phage Display Libraries as a Source of Bio-Therapeutics” (PLoS ONE, 2013).
No end group written: not given here.

Assays:
recombinant αvβ6 = assay: Monoclonal scFv screening ELISA / binding to immobilised recombinant αvβ6; settings: specific binding to recombinant αvβ6, summary statement
Description: Figure 2 Screening of phage clones isolated from the α-helix & 3_10-helix libraries. A) Monoclonal scFv screening ELISA testing 96 clones in each library. Bacterial supernatants were added to 5 µg/ml recombinant αvβ6 immobilized onto ELISA plate and then probed with mouse anti-Myc antibody followed by anti-mouse-HRP. B) Clones with unique sequences were screened for binding cellular αvβ6 by flow cytometry. […] For clarity the relevant αvβ6-specific mouse monoclonal antibody 10D5 (grey) and the negative control IgG (black) histograms are also shown in each plot. […] TEXT PRINTED IN THE PICTURE: (C) D25: 30kDa | (C) D34: 30kDa
The α-helix and 3_10 libraries were each rescued separately KM13 helper phage as described previously. For selection, we used in parallel each library separately as well as mixed alpha helix and 3_10 libraries. The initial phage selection was performed using immobilised recombinant αvβ6 protein as described previously, [29] and http://www.lifesciences.sourcebioscience.com/ media/143421/tomlinsonij.pdf. After two rounds of selection on immobilised αvβ6 we then selected the libraries on cell-expressed αvβ6 using A375Pβ6 and A375PPuro cell lines, for αvβ6-positive and αvβ6-negative selection, respectively, [22]. First line screening were done by ELISA using 5 µg/ml immobilised recombinant αvβ6 as described.

[1] = tested on: A375Pβ6 cells (cellular αvβ6); assay: Flow cytometry binding to αvβ6-expressing cells; assay type: cell-based; settings: for binding to αvβ6-expressing cells: flow cytometry, dose dependent binding analysis, 0.1 or 1 uM, 1 hr on ice, MFI
Description: (§1) The adherent melanoma cell lines A375Pβ6 and A375Ppuro, described previously were cultured in Dulbecco's Modified Eagles' Medium (DMEM) supplemented with 10% Foetal Calf Serum (FCS). The human oral squamous cell carcinoma VB6, which was engineered to express high levels of αvβ6, was grown in Keratinocyte Growth Medium as described.
(§2) Purified scFv were tested for specificity for αvβ6 by flow cytometry using the isogenic pairs of cell lines, A375Pβ6 and A375Ppuro, or DX3β6 and DX3puro. Each pair expresses similar levels of four RGD-binding integrins (αvβ3, αvβ5, αvβ8, α5β1) but only A375Pβ6 and DX3β6 express αvβ6 [14], [22], [30]. Briefly, cells were detached with trypsin/EDTA, rinsed twice in ice-cold wash buffer (0.1% BSA/DMEM/0.1% NaN3) and approximately 2×10^5 cells re-suspended in 50 µl of wash buffer per sample. In between all incubation steps, all samples were washed twice with wash buffer unless otherwise stated. Cells were incubated on ice for 1 hr with 0.1 or 1 uM purified scFv of peptide, washed twice. For scFv, cells were then incubated for 1 hr on ice with mouse anti-Myc antibody (clone 9E10, Santa Cruz) at 1∶100. After washing, bound antibody was detected with anti-mouse IgG-Alexaflour 488 (1∶250 for 1 h; Molecular Probes), on ice. […] Cells were analysed using the FACSCalibur (Beckton Dickinson). Cell expression of αvβ6 integrin was detected with mouse monoclonal antibody (clone 10D5, 10 µg/ml; Millipore) and non-specific (control) binding with non-immune class matched IgG.

A375Ppuro cells = assay: Flow cytometry binding to αvβ6-negative cells; assay type: cell-based; settings: for binding to αvβ6-negative cells: flow cytometry, A375Ppuro (αvβ3, αvβ5, αvβ8, α5β1 positive), dose dependent binding analysis, 0.1 or 1 uM; for binding to αvβ6-negative cells (Figure S1): biotinylated peptide at 1 uM, A375Ppuro, rabbit anti-biotin IgG then anti-rabbit IgG-Alexafluor 488
Description: as §1, §2
Supplementary file pone.0070452.s001.tif: Figure S1 A375Ppuro cells were incubated with biotinylated D25p or D34p at 1 uM. Bound peptide was detected with rabbit anti-biotin IgG (1∶200), followed by anti-rabbit IgG-Alexafluor 488 (1∶250; Molecular Probes). […] Black histograms represent controls where peptides were omitted. (TIF) Click here for additional data file.

cellular αvβ6 = assay: Inhibition of A20FMDV2 binding to cellular αvβ6 (flow cytometry); assay type: cell-based; settings: 0.1 and 1.0 µM, 10 min pre-incubation, 40 min with 10 nM biotinylated A20FMDV2; % of MFI without inhibitor
[2] = tested on: αvβ6-dependent adhesion of carcinoma cells to immobilised fibronectin; assay: αvβ6-dependent adhesion to fibronectin (Picogreen adhesion assay); assay type: cell-based; settings: for inhibition of αvβ6-dependent adhesion to fibronectin: fibronectin 10 ug/ml, 30 min at 37°C, quadruplicate, repeated at least 2-3 times
Description: All adhesion assays were performed in quadruplicate and repeated at least 2–3 times. In a 96-well plate format, test wells were coated with Fibronectin (10 ug/ml/PBS) and negative control wells were coated with 0.1% BSA (bovine serum albumin)/PBS. After incubation at 37°C for 1 hour, plates were washed in PBS twice and blocked with 0.1% BSA/PBS for 30 mins at 37°C. Following a PBS rinse, cells were seeded into the wells, the plate resting on ice to avoid dehydration and to ensure an initial uniform temperature for the experiment. Purified scFv or peptide was added (25 ul) to the wells at the desired concentrations, before adding 1.5×10^4 cells (25 ul) per well. In some experiments, cells (1.5×10^4) were pre-treated with β1 blocking antibody AIIB2 at 10 ug/ml before seeding into test wells to block the β1-dependent fibronectin adhesion. To determine percentage adhesion, standard curves were generated by plating 0–2.5×10^4 cells in separate wells. After incubating plates at 37°C for 30′ plates were washed twice in 1 mM CaCl2/0.5 mM MgCl2/PBS and transferred into −80°C for 15 mins. Adherent cells were quantified using a Picogreen kit (Invitrogen) and analysed on a fluorescence reader (FLUOstar Optima, BMG Labtech Ltd, Bucks, UK).

[3] = Size-exclusion chromatography (FPLC) of purified scFv
αvβ6-negative cells = assay: Internalisation assay, αvβ6-negative cells (confocal microscopy); settings: scFv 4 uM or biotinylated peptide 100 nM, 37°C
αvβ6-expressing cells = assay: Internalisation assay, αvβ6-expressing cells (confocal microscopy); settings: for cellular internalisation in αvβ6-expressing cells: scFv 4 uM or biotinylated peptide 100 nM, confocal microscopy; for cellular internalisation in αvβ6-expressing cells / nuclear localisation / time of efficient internalisation: 37°C; for nuclear localisation / time of efficient internalisation: biotinylated peptide 100 nM

Q: With “D25scFv: human scFv clone with synthetic VH-CDR3 encoding RGD α-helix, EP RGDLRTLAAREKRNFNETLAR LQEKGI” as the substance, how does the “binding to recombinant αvβ6” value (recombinant αvβ6) read?
A: specific binding to recombinant and cellular αvβ6

Q: And the “comparison of binding to cellular αvβ6, D34scFv versus D25scFv” value ([1]; discussion statement)?
A: no difference in binding

Q: What about the “binding to αvβ6-expressing cells” value [1] of the same substance?
A: αvβ6-specific binding to A375Pβ6 cells

Q: What about the “binding to cellular αvβ6, flow cytometry verification” value ([1]; scFv at 100, 10 and 1 µg/ml) of the same substance?
A: Binding to cellular αvβ6

Q: What about the “binding to αvβ6-negative cells” value (A375Ppuro cells) of the same substance?
A: not A375Ppuro

Q: And the “inhibition of A20FMDV2 binding to cellular αvβ6” value (from here on “inhibition of A20FMDV2 binding”) (cellular αvβ6)?
A: dose-dependent inhibition

Q: And the “inhibition of αvβ6-dependent adhesion to fibronectin” value (“inhibition … to fibronectin” for short) [2]?
A: significant concentration-dependent inhibition

Q: What about the “comparison of adhesion inhibition, D25scFv vs D34scFv” value ([2]; p>0.05) of the same substance?
A: similarly inhibited

Q: What about the “size-exclusion lower peaks elution volume” value ([3]; HiPrep 16/60 sephacryl S-200, PBS, 0.3 ml/min, 280 nm, scFv dimers and tetramers) of the same substance?
A: 45 to 60 mL

Q: And the “size-exclusion major peak, apparent molecular weight” value ([3]; HiPrep 16/60 sephacryl S-200, PBS, calibration curve)?
A: 30 kDa

Q: And the “oligomerisation by size-exclusion chromatography” value ([3]; lower peaks at 45–60 ml, PBS)?
A: scFv dimers and tetramers

Q: And the “cellular internalisation in αvβ6-negative cells” value (αvβ6-negative cells)?
A: not in αvβ6-negative cells

Q: What about the “cellular internalisation in αvβ6-expressing cells” value (αvβ6-expressing cells) of the same substance?
A: cellular internalisation in αvβ6-expressing cells

Q: And the “cellular localisation at 0 minutes” value (αvβ6-expressing cells; scFv 4 uM, 0 minutes, αvβ6-expressing cells)?
A: localised at the cell surface

Q: And the “cellular localisation at 45 minutes” value (αvβ6-expressing cells; scFv 4 uM, 37°C for 45 minutes, αvβ6-expressing cells)?
A: localised within the cell cytoplasm and nucleus

Q: Which “binding to recombinant αvβ6” value (recombinant αvβ6) does the source give for “EP RGDLRTLAAREKRNFNETLAR LQEKGI [D25p, VH-CDR3 derived peptide of D25scFv, 29 amino-acids]” here?
A: specific binding to recombinant and cellular αvβ6

Q: What about the “binding to αvβ6-expressing cells” value [1] of the same substance?
A: αvβ6-specific binding to A375Pβ6 cells

Q: What about the “binding to αvβ6-negative cells” value (A375Ppuro cells) of the same substance?
A: not A375Ppuro

Q: And the “inhibition of A20FMDV2 binding” value (cellular αvβ6)?
A: dose-dependent inhibition

Q: And the “comparison of inhibition of αvβ6-cellular function, D25p vs D34p” value ([2]; discussion statement)?
A: more efficient inhibitor of αvβ6-cellular function than D34p

Q: And the “inhibition … to fibronectin” value [2]?
A: significant concentration-dependent inhibition

Q: And the “comparison of adhesion inhibition, D25p vs D34p” value ([2]; p = 0.0156, Wilcoxon matched-pairs signed rank test)?
A: significantly stronger than D34p

Q: Which “binding to recombinant αvβ6” value (recombinant αvβ6) does the source give for “QP RGDLRELAARSEAQLQEKGI [D34p, VH-CDR3 derived peptide of D34scFv, 22 amino-acids]” here?
A: specific binding to recombinant and cellular αvβ6

Q: And the “binding to αvβ6-expressing cells” value [1]?
A: αvβ6-specific binding to A375Pβ6 cells

Q: What about the “binding to αvβ6-negative cells (Figure S1)” value (A375Ppuro cells) of the same substance?
A: no significant binding

Q: And the “binding to αvβ6-negative cells” value (A375Ppuro cells)?
A: not A375Ppuro

Q: What about the “inhibition of A20FMDV2 binding” value (cellular αvβ6) of the same substance?
A: dose-dependent inhibition

Q: What about the “inhibition … to fibronectin” value [2] of the same substance?
A: significant concentration-dependent inhibition

Q: For “biotinylated-D25p: biotinylated D25p peptide (EPRGDLRTLAAREKRNFNETLARLQEKGI; also: biotinylated, position not given here)”, which “binding to αvβ6-negative cells (Figure S1)” value (A375Ppuro cells) is on record?
A: no significant binding

Q: And the “cellular internalisation in αvβ6-negative cells” value (αvβ6-negative cells)?
A: not in αvβ6-negative cells

Q: And the nuclear localisation (αvβ6-expressing cells; αvβ6-expressing cells)?
A: no nuclear localisation

Q: What about the “time of efficient internalisation” value (αvβ6-expressing cells; αvβ6-expressing cells) of the same substance?
A: 30 to 45 min

Q: What about the “cellular internalisation in αvβ6-expressing cells” value (αvβ6-expressing cells) of the same substance?
A: cellular internalisation in αvβ6-expressing cells

Q: What does the source list for “biotinylated-D34p: biotinylated D34p peptide (QPRGDLRELAARSEAQLQEKGI; also: biotinylated, position not given here)”?
A: cellular internalisation in αvβ6-negative cells (αvβ6-negative cells): not in αvβ6-negative cells; nuclear localisation (αvβ6-expressing cells; αvβ6-expressing cells): no nuclear localisation; time of efficient internalisation (αvβ6-expressing cells; αvβ6-expressing cells): 30 to 45 min; cellular internalisation in αvβ6-expressing cells (αvβ6-expressing cells): cellular internalisation in αvβ6-expressing cells
